Values after ≈ are worked out from the molar mass of the structure shown. Where two headings read alike, the source gives them in different places.
Assays:
[1] = test system: Plasmodium falciparum, chloroquine-resistant strain RFCR3; experiment: activity against P. falciparum in vitro, strain RFCR3; type: cell-based; details: chloroquine-resistant strain RFCR3, 48 h-72 h, read-out: IC50 (50% growth inhibition)
Protocol: (§1) Test method for the determination of the activity against P. falciparum in vitro
(§2) The preparations of the present invention were tested on intraerythrocytary stages of P. falciparum from asynchronous cultures according to the method of Desjardin et al. (Desjardins, R. E. et al: Quantitative assessment of antimalarial activity in vitro by a semiautomated microdilution technique. Antimicrob. Agents Chemother. 16, 710-718, (1979)).
(§3) The culture medium consisted of RPMI 1640 with the addition of 25 mM HEPES, 25 mM NaHCO3, […] neomycin and 10% human serum (A^+). Human-A^+ erythrocytes were used as the P. falciparum host cells. The parasites were maintained at 37° C. in an atmosphere of 3% O2, 4% CO2, 93% N2 and at 95% relative humidity.
(§4) In order to determine the activity, the preparations were dissolved in DMSO, pre-diluted in the culture medium to a suitable starting concentration and subsequently titrated-out into microtitre plates in the 2nd stage over 6-7 steps. After the addition of the parasite culture (0.7% parasitemia in 2.5% erythrocyte suspension), the test plates were incubated under the conditions given above for 48 h-72 h. The parasite growth in the different preparation concentrations was determined using [G-^3 H]-hypoxanthin incorporation compared to untreated control cultures on the same test plates. The 50% growth inhibition (IC50) was calculated according to logit regression analysis from the resulting dosage-activity curve.
(§5) The preparations were tested on at least one chloroquine-resistant and one chloroquine-sensitive P. falciparum strain. Additional sensitive and resistant strains were also included for further characterization.
(§6) Table 1 below contains the IC50 values measured in vitro for the growth inhibition of chloroquine-sensitive and chloroquine-resistant strains of the human pathogenic Plasmodium falciparum.

[2] = test system: Plasmodium falciparum, chloroquine-sensitive strain HB3; experiment: activity against P. falciparum in vitro, strain HB3; type: cell-based; details: chloroquine-sensitive strain HB3, 48 h-72 h, read-out: IC50 (50% growth inhibition)
Protocol: as §1, §2, §3, §4, §5, §6

[3] = test system: Plasmodium berghei (strain ANKA); experiment: activity against Plasmodium berghei in vivo (infected mice); details: mice; for ED50: single administration po, dose reducing average erythrocyte infection rate by 50%, read-out: ED50 (po); for inhibition in vivo at 10 mg/kg: 48 hours after treatment (D+3)
Protocol: Test method for the determination of the activity against Plasmodium berghei in vivo
The preparations according to the present invention were tested on mice infected with malaria pathogens (Plasmodium berghei). Male albino mice (IBM:MORO(SPF), FUELLINSDORF) weighing about 25 g were used as the test animals. They were kept in climatized rooms at 21°-22° C. in groups of 5 animals per cage. They received ad libitum a diet feed with a low PABA content ("NAFAG FUTTER" No. 9009 PAB-45, PABA content 45 mg/kg) and drinking water. On the first day of the test (D0) the test animals were infected with Plasmodium berghei (strain ANKA). For this there was used heparinized blood of a donor mouse with about 30% parasitemia, which was diluted with physiological saline such that it contains 10^8 parasitized erythrocytes per ml. 0.2 ml of this suspension was injected intravenously (i.v.) into the mice to be treated and into the control mice. In untreated control animals the parasitemia normally reaches 30-40% on the third day after the infection (D+3) and the test animals die between days +5 and +7.
The substances to be tested were dissolved or suspended in distilled water or in a mixture of 7% Tween 80, 3% alcohol (96%) and water. Usually, 0.25 ml of this solution or suspension was administered once subcutaneously and perorally to groups of 5 test animals. Treatment was effected 24 hours after the infection. 10 control animals were treated in the same manner with solvent or suspension medium per test.
All substances were tested in a first test in a single dosage of 10 mg/kg. Only those substances which in this test (10 mg/kg) had shown a parasitaemia reduction of 90% were used for the titration.
48 hours after the treatment (D+3), blood smears were prepared from all animals using blood from tail veins and were stained with Giemsa. The average erythrocyte infection rate (parasitemia in %) in the control groups as well as in the groups which had been treated with the test compounds was determined by counting under a microscope. The difference in the average values of the infection rates of control group (100%) and treated groups was calculated and expressed as a percentage reduction (GI %). The ED50 or ED90 was determined mathematically by means of the JMP programme (nonlinear fit). The ED50 (ED90) in mg/kg is that dose which after single administration reduces the average erythrocyte infection rate by 50% (90%) in comparison to the control group.
Table 2 below contains data with respect to the activity measured against Plasmodium berghei in mice: GI % is the percentage reduction in the parasitemia after a single dose of 10 mg/kg of the test substance administered perorally (po) or subcutaneously (sc); ED50 and ED90 are the effective doses of the test substance administered perorally or subcutaneously.

[4] = test system: Plasmodium falciparum, chloroquine-resistant strain ItG2 F6; experiment: activity against P. falciparum in vitro, strain ItG2 F6; type: cell-based; details: chloroquine-resistant strain ItG2 F6, 48 h-72 h, read-out: IC50 (50% growth inhibition)
Protocol: as §1, §2, §3, §4, §5, §6

[5] = test system: Plasmodium falciparum, chloroquine-resistant strain Indo; experiment: activity against P. falciparum in vitro, strain Indo; type: cell-based; details: chloroquine-resistant strain Indo, 48 h-72 h, read-out: IC50 (50% growth inhibition)
Protocol: as §1, §2, §3, §4, §5, §6

[6] = test system: Plasmodium falciparum, chloroquine-resistant strain W2; experiment: activity against P. falciparum in vitro, strain W2; type: cell-based; details: chloroquine-resistant strain W2, 48 h-72 h, read-out: IC50 (50% growth inhibition)
Protocol: as §1, §2, §3, §4, §5, §6

[7] = test system: Plasmodium falciparum, chloroquine-resistant strain 7G8; experiment: activity against P. falciparum in vitro, strain 7G8; type: cell-based; details: chloroquine-resistant strain 7G8, 48 h-72 h, read-out: IC50 (50% growth inhibition)
Protocol: as §1, §2, §3, §4, §5, §6

[8] = test system: Plasmodium falciparum, chloroquine-sensitive strain FCH5C2; experiment: activity against P. falciparum in vitro, strain FCH5C2; type: cell-based; details: chloroquine-sensitive strain FCH5C2, 48 h-72 h, read-out: IC50 (50% growth inhibition)
Protocol: as §1, §2, §3, §4, §5, §6

[9] = test system: Plasmodium falciparum, chloroquine-resistant strain K1; experiment: activity against P. falciparum in vitro, strain K1; type: cell-based; details: chloroquine-resistant strain K1, 48 h-72 h; for IC50: Plasmodium falciparum, read-out: IC50 (50% growth inhibition)
Protocol: as §1, §2, §3, §4, §5, §6

[10] = test system: Plasmodium falciparum, chloroquine-sensitive strain NF54; experiment: activity against P. falciparum in vitro, strain NF54; type: cell-based; details: chloroquine-sensitive strain NF54, 48 h-72 h; for IC50: Plasmodium falciparum, read-out: IC50 (50% growth inhibition)
Protocol: as §1, §2, §3, §4, §5, §6

[11] = test system: Plasmodium falciparum, chloroquine-resistant strain W2 Mef; experiment: activity against P. falciparum in vitro, strain W2 Mef; type: cell-based; details: 48 h-72 h, read-out: IC50 (50% growth inhibition)
Protocol: as §1, §2, §3, §4, §5, §6

[12] = test system: Plasmodium falciparum, chloroquine-sensitive strain Ro7 3; experiment: activity against P. falciparum in vitro, strain Ro7 3; type: cell-based; details: chloroquine-sensitive strain Ro7 3, 48 h-72 h, read-out: IC50 (50% growth inhibition)
Protocol: as §1, §2, §3, §4, §5, §6

[13] = test system: Plasmodium falciparum, chloroquine-sensitive strain RFMEF3; experiment: activity against P. falciparum in vitro, strain RFMEF3; type: cell-based; details: chloroquine-sensitive strain RFMEF3, 48 h-72 h, read-out: IC50 (50% growth inhibition)
Protocol: as §1, §2, §3, §4, §5, §6

[14] = single dose 10 mg/kg po, read-out: GI % at 10 mg/kg (po): percentage reduction in the parasitemia
[15] = single dose 10 mg/kg sc, read-out: GI % at 10 mg/kg (sc): percentage reduction in the parasitemia

Row | Compound | IC50 [1] [ng/mL] | IC50 [2] [ng/mL] | ED50 [3] [mg/kg] | inhibition in vivo at 10 mg/kg [3, 14] [%] | inhibition in vivo at 10 mg/kg [3, 15] [%] | IC50 [4] [ng/mL] | IC50 [5] [ng/mL] | IC50 [6] [ng/mL] | IC50 [7] [ng/mL] | IC50 [8] [ng/mL] | IC50 [9] [ng/mL] | IC50 [10] [ng/mL] | IC50 [11] [ng/mL] | IC50 [12] [ng/mL] | IC50 [13] [ng/mL] | IC50 (50% growth inhibition) [9] [ng/mL] | IC50 (50% growth inhibition) [10] [ng/mL]
1 | CCN(CC)CCNc1ccnc2cc(Cl)ccc12 [Example 6, N2-(7-Chloro-quinolin-4-yl)-N1,N1-diethyl-ethane-1,2-diamine] | 8 (≈ 0.0288 µM) | 8 (≈ 0.0288 µM) | 3.5 | 99 | 99 | 5 (≈ 0.018 µM) | 4 (≈ 0.0144 µM) | 8 (≈ 0.0288 µM) | 9 (≈ 0.0324 µM) | 8 (≈ 0.0288 µM) | 9 (≈ 0.0324 µM) | 5 (≈ 0.018 µM) |  |  |  |  | 
2 | C[C@H](CN(C)C)Nc1ccnc2cc(Cl)ccc12 [Example 33d, (R)-N2-(7-Chloro-quinolin-4-yl)-N1,N1-dimethyl-propane-1,2-diamine] |  |  | 2.2 | 99.9 | 99.9 |  |  |  |  |  | 23 (≈ 0.0872 µM) | 8 (≈ 0.0303 µM) |  |  |  |  | 
3 | CN(C)CCNc1ccnc2cc(Cl)ccc12 [Example 5, N2-(7-Chloro-quinolin-4-yl)-N1,N1-dimethyl-ethane-1,2-diamine] | 6 (≈ 0.024 µM) | 6 (≈ 0.024 µM) | 3.3 | 99.5 | 99 | 4 (≈ 0.016 µM) | 4 (≈ 0.016 µM) | 7 (≈ 0.028 µM) | 7 (≈ 0.028 µM) | 9 (≈ 0.036 µM) | 7 (≈ 0.028 µM) | 4 (≈ 0.016 µM) | 9 (≈ 0.036 µM) |  |  |  | 
4 | Clc1ccc2c(NCCCN3CCCC3)ccnc2c1 [Example 17, (7-Chloro-quinolin-4-yl)-(3-pyrrolidin-1-yl-propyl)-amine] | 11 (≈ 0.038 µM) | 6 (≈ 0.0207 µM) | 4.6 | 95 | 99 | 7 (≈ 0.0242 µM) | 7 (≈ 0.0242 µM) | 14 (≈ 0.0483 µM) | 14 (≈ 0.0483 µM) | 4 (≈ 0.0138 µM) | 15 (≈ 0.0518 µM) | 3 (≈ 0.0104 µM) |  | 6 (≈ 0.0207 µM) | 8 (≈ 0.0276 µM) |  | 
5 | C[C@@H](CNc1ccnc2cc(Cl)ccc12)N(C)C [Example 33g, (S)-N1-(7-chloro-quinoline-4-yl)-N2,N2-dimethyl-propane-1,2-diamine] |  |  |  |  |  |  |  |  |  |  | 17 (≈ 0.0644 µM) | 5 (≈ 0.019 µM) |  |  |  |  | 
6 | Clc1ccc2c(NCCN3CCCC3)ccnc2c1 [Example 7, (7-Chloro-quinolin-4-yl)-(2-pyrrolidin-1-yl-ethyl)-amine] | 7 (≈ 0.0254 µM) | 6 (≈ 0.0218 µM) |  |  |  | 5 (≈ 0.0181 µM) | 4 (≈ 0.0145 µM) | 7 (≈ 0.0254 µM) | 8 (≈ 0.029 µM) | 7 (≈ 0.0254 µM) | 8 (≈ 0.029 µM) | 4 (≈ 0.0145 µM) | 8 (≈ 0.029 µM) |  |  |  | 
7 | CCN(CC)C[C@@H](C)Nc1ccnc2cc(Cl)ccc12 [Example 33f, (R)-N2 (7-Chloro-quinolin-4-yl)-N1,N1-diethyl-propane-1,2-diamine] |  |  | 2.8 | 99.8 | 99.9 |  |  |  |  |  | 41 (≈ 0.14 µM) | 12 (≈ 0.0411 µM) |  |  |  |  | 
8 | CCN(CC)CCNc1ccnc2cc(C(F)(F)F)ccc12 [Example 21, N1,N1 -Diethyl-N2-(7-trifluoromethyl-quinolin-4-yl)-ethane-1,2-diamine] | 54 (≈ 0.173 µM) | 33 (≈ 0.106 µM) |  |  |  | 28 (≈ 0.0899 µM) | 31 (≈ 0.0996 µM) | 57 (≈ 0.183 µM) | 49 (≈ 0.157 µM) | 35 (≈ 0.112 µM) | 34 (≈ 0.109 µM) | 21 (≈ 0.0674 µM) |  | 28 (≈ 0.0899 µM) | 35 (≈ 0.112 µM) |  | 
9 | C[C@@H](CN(C)C)Nc1ccnc2cc(Cl)ccc12 [Example 33c, (S)-N2-(7-Chloro-quinolin-4-yl)-N1,N1-dimethyl-propane-1,2-diamine] |  |  | 1.9 | 99.9 | 99.9 |  |  |  |  |  | 24 (≈ 0.091 µM) | 8 (≈ 0.0303 µM) |  |  |  |  | 
10 | (R)-N1 -(7-Chloro-quinolin-4-yl)-N2,N2 -dimethyl-propane-1,2-diamine [Example 33h] |  |  |  |  |  |  |  |  |  |  |  |  |  |  |  | 18 | 7
11 | CCN(CC)CCCNc1ccnc2cc(Cl)ccc12 [Example 16, N3-(7-Chloro-quinolin-4-yl)-N1,N1-diethyl-propane-1,3-diamine] | 8 (≈ 0.0274 µM) | 5 (≈ 0.0171 µM) | 2 | 99.9 | 99.9 | 5 (≈ 0.0171 µM) | 4 (≈ 0.0137 µM) | 9 (≈ 0.0308 µM) | 9 (≈ 0.0308 µM) | 6 (≈ 0.0206 µM) | 9 (≈ 0.0308 µM) | 3 (≈ 0.0103 µM) |  |  |  |  | 
12 | CCN(CC)C[C@H](C)Nc1ccnc2cc(Cl)ccc12 [Example 33e, (S)-N2-(7-Chloro-quinolin-4-yl)-N1,N1-diethyl-propane-1,2-diamine] |  |  | 3.1 | 99.8 | 99.9 |  |  |  |  |  | 53 (≈ 0.182 µM) | 12 (≈ 0.0411 µM) |  |  |  |  | 
13 | CN(C)CCCNc1ccnc2cc(Cl)ccc12 [Example 15, N3-(7-Chloro-quinolin-4-yl)-N1,N1-dimethyl-propane-1,3-diamine] | 5 (≈ 0.019 µM) | 3 (≈ 0.0114 µM) | 2 | 99.8 | 99.9 | 3 (≈ 0.0114 µM) | 3 (≈ 0.0114 µM) | 7 (≈ 0.0265 µM) | 7 (≈ 0.0265 µM) | 5 (≈ 0.019 µM) | 6 (≈ 0.0227 µM) | 2 (≈ 0.00758 µM) | 12 (≈ 0.0455 µM) |  |  |  | 
